Results as given in patent US4263427A, “Monensin urethane derivatives” (priority 1979, dated 1981).
In brackets after ≈: the same amount, converted by molar mass. Read-outs that look alike come from different tables or passages of the source.

How the values were obtained:
[1] = Oral antihypertensive activity: blood pressure and heart rate (Table 9); type: in vivo
From the text: Compounds of formula I, and their pharmaceutically acceptable salts are orally active as antihypertensive agents.

Treponema hyodysenteriae = test: Activity against Treponema hyodysenteriae (MIC, blood agar plates); type: cell-based; conditions: Brachyspira hyodysenteriae, 48 h, 42° C., anaerobic
From the text: Testing for activity against Treponema hyodysenteriae, a cause of swine dysentery consisted of inoculation of blood agar plates containing a series of two or fourfold dilutions of the monensin urethane derivatives with tenfold dilutions of the T. hyodysenteriae strain.

Plasmodium berghei = test: Oral antimalarial activity against Plasmodium berghei in mice; type: in vivo; conditions: p.o.
From the text: Compounds of formula I wherein R4 is aryl, haloaryl or nitroaryl and their pharmaceutically acceptable salts are orally active as antimalarial agents.

Eimeria tenella = test: Anti-coccidial effect of monensin urethanes added to the feed of infected chickens (Table 7); type: in vivo; conditions: infected untreated control 3.0, less than 2.5 significant
Description: This test utilizes ten chickens per drug group. Ten chickens are employed as a weight control and ten chickens as an infected control. The drug is given 48 hours in advance of the infection. One gm. of the test drug is mixed in a mechanical mixer with a sufficient amount of chicken feed to result in the desired dosage. The infection consists of approximately 200,000 oocysts given orally by pipette. The tests lasts for eleven days and then the surviving birds are autopsied and examined for gross lesions in the ceca. The test birds are rated according to the number of survivors and the number of cecal lesions. The results are expressed as average degree of infection (A.D.I.). An average degree of infection of less than 2.5 is considered to be significant.

Bacillus megaterium 8CU = test: Minimum Inhibitory Concentration, agarwell diffusion assay (Table 6); type: cell-based; conditions: Priestia megaterium, 8CU, read-out: Minimum Inhibitory Concentration, Bacillus megaterium 8CU
From the text: (§1) (a) Lowest twofold dilution giving zone of inhibition in the agarwell
(§2) (b) NRRL collection number, all the rest ate ATCC numbers.

[2] = test system: Paceilomyces variotl 25820; test: as above; type: cell-based; conditions: read-out: Minimum Inhibitory Concentration, Paceilomyces variotl 25820
From the text: as §1, §2

Sarcina lutca 9341 = test: as above; type: cell-based; conditions: Sarcina, 9341, read-out: Minimum Inhibitory Concentration, Sarcina lutca 9341
From the text: as §1, §2

Staph. aureus 6538 = test: as above; type: cell-based; conditions: Staphylococcus aureus, 6538, read-out: Minimum Inhibitory Concentration, Staph. aureus 6538
From the text: as §1, §2

Bacillus subtilis 583 = test: as above; type: cell-based
From the text: as §1, §2

Bacillus sp. E 27859 = test: as above; type: cell-based; conditions: Bacillus
From the text: as §1, §2

[3] = test system: Streptococcus cellulosac 3313; test: as above; type: cell-based; conditions: Streptococcus, 3313, read-out: Minimum Inhibitory Concentration, Streptococcus cellulosac 3313
From the text: as §1, §2

[4] = test system: Streptococcus faecium 8043; test: as above; type: cell-based
From the text: as §1, §2

MycoBacterium phiel 355 = test: as above; type: cell-based; conditions: Mycobacterium, 355, read-out: Minimum Inhibitory Concentration, MycoBacterium phiel 355
From the text: as §1, §2

Bacillus sp. TA 27860 = test: as above; type: cell-based; conditions: Bacillus
From the text: as §1, §2

[5] = Bacillus subtilis, 583, Bacillus subtilis 583 (NRRL), read-out: Minimum Inhibitory Concentration
[6] = SP.E27859, Bacillus sp. E 27859, read-out: Minimum Inhibitory Concentration
[7] = Enterococcus faecium, 8043, Streptococcus faecium 8043, read-out: Minimum Inhibitory Concentration
[8] = SP.TA27860, Bacillus sp. TA 27860, read-out: Minimum Inhibitory Concentration

Compound	MIC (Treponema hyodysenteriae) [µg/mL]	ED50 (Plasmodium berghei) [mg/kg]	Average Degree of Infected (A.D.I.) (Eimeria tenella; 75 ppm in feed)	MIC (Bacillus megaterium 8CU) [µg/mL]	MIC [2] [µg/mL]	MIC (Sarcina lutca 9341) [µg/mL]	MIC (Staph. aureus 6538) [µg/mL]	MIC (Bacillus subtilis 583; [5]) [µg/mL]	MIC (Bacillus sp. E 27859; [6]) [µg/mL]	MIC [3] [µg/mL]	MIC [4, 7] [µg/mL]	MIC (MycoBacterium phiel 355) [µg/mL]	MIC (Bacillus sp. TA 27860; [8]) [µg/mL]	Average Degree of Infected (A.D.I.) (Eimeria tenella; 125 ppm in feed)	Day of Maximum Change, Blood Pressure ([1]; oral dose 1 mg/kg) [days]	Day of Maximum Change, Heart Rate ([1]; oral dose 1 mg/kg) [days]	Maximum Change (%), Blood Pressure ([1]; oral dose 1 mg/kg) [%]	Maximum Change (%), Heart Rate ([1]; oral dose 1 mg/kg) [%]	Mean Blood Pressure at time of maximum effect ([1]; oral dose 1 mg/kg) [mm Hg]	Mean Blood Pressure before treatment ([1]; oral dose 1 mg/kg) [mm Hg]	further results
CCC1(C2OC(C3OC(O)(COC(=O)Nc4ccccc4)C(C)CC3C)CC2C)CCC(C2(C)CCC3(CC(O)C(C)C(C(C)C(OC)C(C)C(=O)O)O3)O2)O1 (stereo not shown) [Monensin A, phenylurethane]	0.08 to 0.4 (≈ 0.101 to 0.506 µM)	4	0.9	0.4 (≈ 0.506 µM)	3.1 (≈ 3.92 µM)	0.8 (≈ 1.01 µM)	0.8 (≈ 1.01 µM)	0.4 (≈ 0.506 µM)	0.05 (≈ 0.0633 µM)	3.1 (≈ 3.92 µM)	0.1 (≈ 0.127 µM)	3.1 (≈ 3.92 µM)	0.4 (≈ 0.506 µM)								Day of Maximum Change, Blood Pressure ([1]; oral dose 10 mg/kg): 2 days; Maximum Change (%), Blood Pressure ([1]; oral dose 10 mg/kg): 26%; Mean Blood Pressure at time of maximum effect ([1]; oral dose 10 mg/kg): 170 mm Hg; Mean Blood Pressure before treatment ([1]; oral dose 10 mg/kg): 229 mm Hg
CCC1(C2OC(C3OC(O)(COC(=O)Nc4ccc([N+](=O)[O-])cc4)C(C)CC3C)CC2C)CCC(C2(C)CCC3(CC(O)C(C)C(C(C)C(OC)C(C)C(=O)O)O3)O2)O1 (stereo not shown) [Monensin A, 4-nitrophenylurethane]			0.5																		
CCC1(C2OC(C3OC(O)(COC(=O)Nc4ccc(F)cc4)C(C)CC3C)CC2C)CCC(C2(C)CCC3(CC(O)C(C)C(C(C)C(OC)C(C)C(=O)O)O3)O2)O1 (stereo not shown) [Monensin A, 4-fluorophenylurethane]	0.08 (≈ 0.099 µM)			0.4 (≈ 0.495 µM)	3.1 (≈ 3.84 µM)	0.8 (≈ 0.99 µM)	1.6 (≈ 1.98 µM)	0.8 (≈ 0.99 µM)	0.2 (≈ 0.248 µM)	3.1 (≈ 3.84 µM)	0.1 (≈ 0.124 µM)	3.1 (≈ 3.84 µM)	0.8 (≈ 0.99 µM)	1.0							Day of Maximum Change, Blood Pressure ([1]; oral dose 3 mg/kg): 2 days; Maximum Change (%), Blood Pressure ([1]; oral dose 3 mg/kg): 17%; Mean Blood Pressure at time of maximum effect ([1]; oral dose 3 mg/kg): 182 mm Hg; Mean Blood Pressure before treatment ([1]; oral dose 3 mg/kg): 220 mm Hg
CCC1(C2OC(C3OC(O)(COC(=O)Nc4ccc(C)cc4)C(C)CC3C)CC2C)CCC(C2(C)CCC3(CC(O)C(C)C(C(C)C(OC)C(C)C(=O)O)O3)O2)O1 (stereo not shown) [Monensin A, 4-methylphenylurethane, Monensin A, 4-methyl phenylurethane]			1.1	0.2 (≈ 0.249 µM)	1.6 (≈ 1.99 µM)	0.4 (≈ 0.497 µM)	0.4 (≈ 0.497 µM)	0.4 (≈ 0.497 µM)	0.05 (≈ 0.0622 µM)	0.8 (≈ 0.995 µM)	0.2 (≈ 0.249 µM)	1.6 (≈ 1.99 µM)	0.2 (≈ 0.249 µM)		3	4	16	15	182	217	
CCC1(C2OC(C3OC(O)(COC(=O)NC4CCCCC4)C(C)CC3C)CC2C)CCC(C2(C)CCC3(CC(O)C(C)C(C(C)C(OC)C(C)C(=O)O)O3)O2)O1 (stereo not shown) [Monensin A, cyclohexylurethane]	0.4 (≈ 0.502 µM)			0.4 (≈ 0.502 µM)	3.1 (≈ 3.89 µM)	0.8 (≈ 1 µM)	1.6 (≈ 2.01 µM)			3.1 (≈ 3.89 µM)		3.1 (≈ 3.89 µM)		0.8							MIC (Bacillus subtilis 583; Bacillus subtilis, 583, read-out: Minimum Inhibitory Concentration, Bacillus subtilis 583 (NRRL)): 0.8 µg/mL (≈ 1 µM); MIC (Bacillus sp. E 27859; SP.E27859, read-out: Minimum Inhibitory Concentration, Bacillus sp. E 27859): 0.2 µg/mL (≈ 0.251 µM); MIC ([4]; Enterococcus faecium, 8043, read-out: Minimum Inhibitory Concentration, Streptococcus faecium 8043): 0.1 µg/mL (≈ 0.126 µM); MIC (Bacillus sp. TA 27860; SP.TA27860, read-out: Minimum Inhibitory Concentration, Bacillus sp. TA 27860): 0.6 µg/mL (≈ 0.754 µM)
CCC1(C2OC(C3OC(O)(COC(=O)Nc4ccc(Cl)cc4)C(C)CC3C)CC2C)CCC(C2(C)CCC3(CC(O)C(C)C(C(C)C(OC)C(C)C(=O)O)O3)O2)O1 (stereo not shown) [Monensin A, 4-chlorophenylurethane]	0.08 (≈ 0.097 µM)	2.3		0.2 (≈ 0.243 µM)	3.1 (≈ 3.76 µM)	0.2 (≈ 0.243 µM)	0.4 (≈ 0.485 µM)	0.4 (≈ 0.485 µM)	0.02 (≈ 0.0243 µM)	0.8 (≈ 0.97 µM)	0.05 (≈ 0.0606 µM)	0.8 (≈ 0.97 µM)	0.2 (≈ 0.243 µM)		5	5	20	19	179	224	Average Degree of Infected (A.D.I.) (Eimeria tenella; 65 ppm in feed): 0.8
